Measured values from EP4652842A1, “BIOPESTICIDE COMPOSITION, PROCEDURE OF OBTAIN THEREOF, AND METHOD FOR CONTROLLING AND TREATING BROAD SPECTRUM OF PESTS, DISEASES AND WEEDS IN PLANTS” (priority 2024, dated 2025).
Like-named read-outs stand apart in the source and are kept apart here.

Experiments:
Assay type in all cases: in vivo
Bemisia tabaci [1] = tested on: Bemisia tabaci
Description: (§1) The objective of this bioassay is to evaluate the effect of test items on the mortality of adult insects and mites in a short/medium-term (0-24 hours) by topical application. Tests were conducted in plastic net bottles. A total of 10 replicates for each treatment (tests items and negative control) were used in each experiment and temporarily replicated 3 times along the week. (Figure 12)
(§2) Numbers of live and dead adult insects and mites were counted at 24 h post-treatment. Adult insects and mites were considered dead if no movement was apparent after probing with the tip of a fine brush under stereoscopic magnifying glass. Mortality percentage was calculated in treatment and control groups. If the mortality in negative control is above 20% the test was discarded.
(§3) Means of %M were compared using a one-way analysis of variance (ANOVA, p<0.05) and LSD-test as a post hoc test to verify significant differences between single treatments using Statgraphics Centurion XVII software. When nonnormality in the data was detected, an additional Kruskal-Wallis test was conducted, and Box-and-Whisker Plot (Median Notch) was presented.
(§4) The different compositions were tested by trials that were carried out on different relevant insect pests and acari including: Tuta absoluta, Bemisia tabaci, Myzus persicae, Frankliniella occidentalis and Tetranychus urticae. The bioassay type used was contact mortality (Leaf Disc Method) described in the example 4.
(§5) The main treatments included in the comparison of efficacy are: Group A: Individual solvents: Benzyl alcohol, ethanol, isopropanol, and water were applied directly (purity as in the label) diluted at 0.3% (3cc/L) in water without formulation. Group B: Vegetable matrix extracts were extracted with different solvents such as benzyl alcohol, ethanol, isopropanol, and water.

[2] = tested on: Frankliniella occidentalis
Description: as §1, §2, §3, §4, §5

Myzus persicae [3] = tested on: Myzus persicae
Description: as §1, §2, §3, §4, §5

Tetranychus urticae [4] = tested on: Tetranychus urticae
Description: as §1, §2, §3, §4, §5

Tuta absoluta [5] = tested on: Tuta absoluta
Description: as §1, §2, §3, §4, §5

Bemisia tabaci [6] = assay: Antifeedant effects: settling inhibition
Description: (§6) The concept of antifeedant as a substance that acts on insect behaviour involves feeding reduction (FR), settling inhibition (SI) and oviposition Inhibition (IO). In some cases, settling inhibition is considered as indirect repellent effect. […] It is based on the preference of target adults for treated and non-treated host plants located in the same entomological cages (in plant assays). The experiments were conducted in bugdorm®-type net cages (Figure 13). Four similar host plants (two leaf stage) were transferred to a same pot (Figure 14). Two of the plants were sprayed with biopesticide compositions and the others with the control and dried for 30 minutes. Target adults were released at the site that was equidistant from the two plants. A total of 5 cages for each treatment (four plants each) and control were used in each experiment and replicated 3 times in different days. […] After 24 hours, the number of settled adults in treated and non-treated plants and the number of laid eggs were recorded on the upper and underside of each leaf. Number of adults and eggs were counted under a stereomicroscope. […] T= Settling of treated plants; C= Setting of control plants. Means of %Sl and %IO were analysed for significance by the non-parametric Wilcoxon signed-rank test (p < 0.05).

Myzus persicae [7] = assay: Antifeedant effects: settling inhibition
Description: as §6

[8] = tested on: Frankliniella occidentalis; assay: Antifeedant effects: feeding reduction; details: F. occidentalis
Tuta absoluta [9] = assay: Antifeedant effects: feeding reduction
Tetranychus urticae [10] = assay: Antifeedant effects: settling inhibition and oviposition inhibition; details: T. urticae
Description: as §6, with “control plants. […] Means of” for “control plants. Means of”

[11] = %SI settling inhibition index, at sublethal concentration 0.021 %
[12] = antifeedant/repellent, concentration under the lethal EC50
[13] = %FR feeding reduction index, at sublethal concentration 0.014 %

Compound: CC(C)=CCCC(C)=CC=O [Citral]
- %M (Bemisia tabaci [1]; in vivo): 20.7 ±7.3%
- %M ([2]; in vivo): 27.8 ± 3.6%
- %M (Myzus persicae [3]; in vivo): 30.2 ±5.8%
- %M (Tetranychus urticae [4]; in vivo): 16.9 ± 3.9%
- %M (Tuta absoluta [5]; in vivo): 0.0 ±0.0%

Compound: COC(=O)C=Cc1ccccc1 [Methyl cinnamate]
- %M (Bemisia tabaci [1]; Bemisia tabaci, at sublethal concentration 0.014 %, Abbott's corrected): 14.5 ± 9.8%
- Sublethal concentration (%) (Bemisia tabaci [1]; Bemisia tabaci, contact mortality, concentration under the lethal EC50): 0.014%
- %M ([2]; Frankliniella occidentalis, at sublethal concentration 0.021 %, Abbott's corrected): 25.6 ± 4.6%
- Sublethal concentration (%) ([2]; Frankliniella occidentalis, contact mortality, concentration under the lethal EC50): 0.021%
- %M (Myzus persicae [3]; Myzus persicae, at sublethal concentration 0.014 %, Abbott's corrected): 17.1 ± 4.7%
- Sublethal concentration (%) (Myzus persicae [3]; Myzus persicae, contact mortality, concentration under the lethal EC50): 0.014%
- %M (Tetranychus urticae [4]; Tetranychus urticae, at sublethal concentration 0.021 %, Abbott's corrected): 24.7 ± 6.9%
- Sublethal concentration (%) (Tetranychus urticae [4]; Tetranychus urticae, contact mortality, concentration under the lethal EC50): 0.021%
- %M (Tuta absoluta [5]; Tuta absoluta, at sublethal concentration 0.021 %, Abbott's corrected): 17.5 ± 5.9%
- Sublethal concentration (%) (Tuta absoluta [5]; Tuta absoluta, contact mortality, concentration under the lethal EC50): 0.021%
- %SI/ %FR (Bemisia tabaci [6]; [11]): 14.4 ± 3.6%
- Sublethal concentration (%) (Bemisia tabaci [6]; [12]): 0.021%
- %SI/ %FR (Myzus persicae [7]; %SI settling inhibition index, at sublethal concentration 0.014 %): 17.9 ± 6.7%
- Sublethal concentration (%) (Myzus persicae [7]; [12]): 0.014%
- %SI/ %FR [8, 13]: 22.2 ± 2.1%
- Sublethal concentration (%) [8, 12]: 0.014%
- %SI/ %FR (Tuta absoluta [9]; [13]): 30.4 ± 5.7%
- Sublethal concentration (%) (Tuta absoluta [9]; [12]): 0.014%
- %SI/ %FR (Tetranychus urticae [10]; [11]): 20.0 ± 4.6%
- Sublethal concentration (%) (Tetranychus urticae [10]; [12]): 0.021%
